Measured values reported in US11584744B2 (UNIVERSITY OF WASHINGTON, priority 2017, dated 2023).
Where “and” joins values, the source holds several entries; their conditions need not be identical. Equal entries are not always repeated. Where two headings read alike, the source gives them in different places.

Tests used:
[1] = target: T1, MetRS (T. brucei) (Trypanosoma brucei brucei, UniProt Q38C91); assay: MetRS (T. brucei) enzyme inhibition; type: biochemical
T1 sequence (Q38C91 1-773): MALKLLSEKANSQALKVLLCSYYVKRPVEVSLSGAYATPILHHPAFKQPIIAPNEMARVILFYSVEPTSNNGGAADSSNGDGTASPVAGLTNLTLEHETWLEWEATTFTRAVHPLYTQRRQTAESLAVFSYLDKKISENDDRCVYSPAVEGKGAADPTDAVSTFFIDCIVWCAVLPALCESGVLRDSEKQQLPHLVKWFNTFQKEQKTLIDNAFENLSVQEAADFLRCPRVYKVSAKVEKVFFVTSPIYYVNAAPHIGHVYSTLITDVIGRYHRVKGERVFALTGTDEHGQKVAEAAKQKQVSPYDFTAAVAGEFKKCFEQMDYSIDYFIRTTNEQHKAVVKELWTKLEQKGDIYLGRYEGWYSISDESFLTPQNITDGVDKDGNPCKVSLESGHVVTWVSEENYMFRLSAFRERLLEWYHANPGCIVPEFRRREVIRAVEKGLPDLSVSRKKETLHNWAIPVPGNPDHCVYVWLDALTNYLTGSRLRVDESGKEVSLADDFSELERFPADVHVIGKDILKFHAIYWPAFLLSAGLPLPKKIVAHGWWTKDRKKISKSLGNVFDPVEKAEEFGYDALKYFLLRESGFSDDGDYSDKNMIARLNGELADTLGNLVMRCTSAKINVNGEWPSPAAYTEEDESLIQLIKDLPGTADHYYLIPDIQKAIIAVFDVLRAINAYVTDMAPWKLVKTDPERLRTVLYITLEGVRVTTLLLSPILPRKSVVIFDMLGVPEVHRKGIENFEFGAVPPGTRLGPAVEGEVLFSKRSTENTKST

[2] = target: MetRS (C. parvum) (Cryptosporidium parvum, UniProt Q5CVN0); assay: MetRS (C. parvum) enzyme inhibition; type: biochemical; settings: read-out: (C) MetRS (C. parvum) IC50
Sequence of MetRS (C. parvum) (Q5CVN0 entry or part of it): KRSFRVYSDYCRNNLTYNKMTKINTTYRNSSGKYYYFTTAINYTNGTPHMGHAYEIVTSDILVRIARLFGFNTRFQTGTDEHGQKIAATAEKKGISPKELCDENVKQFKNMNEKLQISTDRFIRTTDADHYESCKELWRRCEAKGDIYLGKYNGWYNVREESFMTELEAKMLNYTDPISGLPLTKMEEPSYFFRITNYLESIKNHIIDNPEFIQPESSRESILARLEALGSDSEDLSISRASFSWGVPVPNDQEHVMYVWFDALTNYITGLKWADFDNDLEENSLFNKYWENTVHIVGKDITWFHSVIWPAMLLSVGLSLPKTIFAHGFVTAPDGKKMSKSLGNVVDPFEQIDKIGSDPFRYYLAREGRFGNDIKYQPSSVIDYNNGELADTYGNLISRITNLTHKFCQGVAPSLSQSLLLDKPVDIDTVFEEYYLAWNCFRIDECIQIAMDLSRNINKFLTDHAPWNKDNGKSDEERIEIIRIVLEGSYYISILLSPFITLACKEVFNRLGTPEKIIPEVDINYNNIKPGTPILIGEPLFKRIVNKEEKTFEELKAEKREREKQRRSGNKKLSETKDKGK

[3] = tested on: T. cruzi; assay: T. cruzi growth inhibition; type: cell-based, Trypanosoma cruzi; settings: read-out: (E) T. cruzi EC50
[4] = tested on: T. brucei; assay: T. brucei growth inhibition; type: cell-based, Trypanosoma brucei; settings: Trypanosoma brucei; read-out: (D) T. brucei EC50

Row | SMILES | IC50 [1] | IC50 [2] | EC50 ([3]; Trypanosoma cruzi) | EC50 [3] | EC50 [4]
1 | Fc1ccc2nc(Cn3cc(Cc4ccc(Cl)cc4Cl)[nH]c3=S)[nH]c2n1 [Compound 2056, 5-(2,4-dichlorobenzyl)-3-((5-fluoro-3H-imidazo[4,5-b]pyridin-2-yl)methyl)-1H-imidazole-2(3H)-thione] | < 40 nM | 195 nM | 3720 nM | – | 242 nM
2 | CSc1ncc(Cc2ccc(Cl)cc2Cl)n1Cc1nc2nc(Cl)ccc2[nH]1 [Compound 2113, 1-({5-chloro-1H-imidazo[4,5-b]pyridin-2-yl}methyl)-5-[(2,4-dichlorophenyl)methyl]-2-(methylsulfanyl)-1H-imidazole] | 2000 nM | > 1000 nM | – | – | 1930 nM
3 | Fc1ccc2[nH]c(Cc3cn4c(-c5cc(Cl)cc(Cl)c5)cccc4n3)nc2n1 [Compound 2131, 5-(3,5-dichlorophenyl)-2-({5-fluoro-1H-imidazo[4,5-b]pyridin-2-yl}methyl)-imidazo[1,2-a]pyridine] | 325 nM | 806 nM | – | – | 197 nM
4 | COc1cc(Cl)c(-c2cccc3nc(Cc4nc5nc(Cl)ccc5[nH]4)cn23)cc1Cl [Compound 2132, 2-({5-chloro-1H-imidazo[4,5-b]pyridin-2-yl}methyl)-5-(2,5-dichloro-4-methoxyphenyl)imidazo[1,2-a]pyridine] | < 40 nM | 656 nM | – | – | 508 nM
5 | COc1ccc(-c2c3c(nn2C)CCN(Cc2nc4nc(Cl)ccc4[nH]2)C3)c(Cl)c1 [Compound 2188, 5-((5-chloro-1H-imidazo[4,5-b]pyridin-2-yl)methyl)-3-(2-chloro-4-methoxyphenyl)-2-methyl-4,5,6,7-tetrahydr0-2H-pyrazolo[4,3-c]pyridine] | < 40 nM | 443 nM | – | – | 808 nM
6 | COc1ccc(-c2cccc3c2CN(Cc2nc4nc(Cl)ccc4[nH]2)CC3)c(Cl)c1 [Compound 2161, 2-({5-chloro-1H-imidazo[4,5-b]pyridin-2-yl}methyl)-8-(2-chloro-4-methoxyphenyl)-1,2,3,4-tetrahydroisoquinoline] | < 40 nM | 252 nM | – | – | 1050 nM
7 | Clc1ccc(Cc2cn(Cc3nc4ccc(Cl)cc4[nH]3)c(Br)n2)c(Cl)c1 [Compound 2194, 2-({2-bromo-4-[(2,4-dichlorophenyl)methyl]-1H-imidazol-1-yl}methyl)-6-chloro-1H-1,3-benzodiazole] | > 10000 nM | > 1000 nM | – | – | > 2000 nM
8 | COc1ccc(-c2cnc3ccc(NCc4nc5nc(F)ccc5[nH]4)cn23)c(Cl)c1 [Compound 2173, 3-(2-chloro-4-methoxyphenyl)—N-((5-fluoro-1H-imidazo[4,5-b]pyridin-2-yl)methyl)imidazo[1,2-a]pyridin-6-amine] | 57 nM | 185 nM | – | – | > 2000 nM
9 | COc1cc(Cl)c(-c2cccc3nc(Cc4nc5nc(F)ccc5[nH]4)cn23)cc1Cl [Compound 2133, 5-(2,5-dichloro-4-methoxyphenyl)-2-({5-fluoro-1H-imidazo[4,5-b]pyridin-2-yl}methyl)imidazo[1,2-a]pyridine] | < 40 nM | 354 nM | – | – | 849 nM
10 | FC(F)(F)c1ccc(-c2cccc3nc(Cc4nc5nc(Cl)ccc5[nH]4)cn23)c(Cl)c1 [Compound 2126, 2-({5-chloro-1H-imidazo[4,5-b]pyridin-2-yl}methyl)-5-[2-chloro-4-(trifluoromethyl)phenyl]imidazo[1,2-a]pyridine] | 40 nM | > 1000 nM | – | – | 1780 nM
11 | Cc1ccc(-c2cccc3nc(Cc4nc5nc(Cl)ccc5[nH]4)cn23)c(Cl)c1 [Compound 2165, 2-({5-chloro-1H-imidazo[4,5-b]pyridin-2-yl}methyl)-5-(2-chloro-4-methylphenyl)imidazo[1,2-a]pyridine] | < 40 nM | 326 nM | – | – | > 200 nM
12 | CCOc1ccc(-c2cccc3nc(Cc4nc5nc(Cl)ccc5[nH]4)cn23)c(Cl)c1 [Compound 2164, 2-({5-chloro-1H-imidazo[4,5-b]pyridin-2-yl}methyl)-5-(2-chloro-4-ethoxyphenyl)imidazo[1,2-a]pyridine] | 143 nM | > 1000 nM | – | – | 1910 nM

Stronger by IC50 [2], values ahead:

Row | IC50 [1] | IC50 [2] | EC50 ([3]; Trypanosoma cruzi) | EC50 [3] | EC50 [4] | SMILES
13 | 72 nM and < 40 nM | 41.7 nM | 681 nM | 638 nM | – | COc1ccc(-c2cnc(N)c3nc(Cc4nc5nc(Cl)ccc5[nH]4)cn23)c(Cl)c1 [Compound 2175, 2-({5-chloro-1H-imidazo[4,5-b]pyridin-2-yl}methyl)-5-(2-chloro-4-methoxyphenyl)imidazo[1,2-a]pyrazin-8-amine]
14 | < 40 nM | 42.1 nM | 647 nM | – | 84 nM | CCNC(=O)Nc1ccc(-c2ccc(OC)cc2Cl)n2cc(Cc3nc4ccc(Cl)cc4[nH]3)nc12 [Compound 2182, 1-{2-[(6-chloro-1H-1,3-benzodiazol-2-yl)methyl]-5-(2-chloro-4-methoxyphenyl)imidazo[1,2-a]pyridin-8-yl}-3-ethylurea]
15 | 63 nM | 175 nM | 2930 nM | – | 113 nM | CCn1c(Cc2ccc(Cl)cc2Cl)cn(Cc2nc3ccc(F)nc3[nH]2)c1=S [Compound 2103, 4-[(2,4-dichlorophenyl)methyl]-3-ethyl-1-({5-fluoro-1H-imidazo[4,5-b]pyridin-2-yl}methyl)-2,3-dihydro-1H-imidazole-2-thione]
16 | < 40 nM | < 40 nM | 409 nM | – | 92.5 nM | CCn1cc(-c2ccc(OC)cc2Cl)c2c1CCN(Cc1nc3nc(Cl)ccc3[nH]1)C2 [Compound 2177, 5-chlor0-2-((3-(2-chloro-4-methoxyphenyl)-1-ethyl-6,7-dihydro-1H-pyrrolo[3,2-c]pyridin-5(4H)-yl)methyl)-1H-imidazo[4,5-b]pyridine]
17 | < 40 nM | 40.1 nM | > 5000 nM | – | 718 nM | O=C(O)Cn1c(C(O)c2ccc(Cl)cc2Cl)cn(Cc2nc3ccc(Cl)nc3[nH]2)c1=O (stereo not drawn) [Compound 2218, 2-(3-((5-chloro-3H-imidazo[4,5-b]pyridin-2-yl)methyl)-5((2,4-dichlorophenyl)(hydroxy)methyl)-2-oxo-2,3-dihydro-1H-imidazol-1-yl)acetic acid]
18 | < 40 nM | 40.3 nM | 1480 nM | – | 73.4 nM | CSc1nc(Cc2ccc(Cl)cc2Cl)cn1Cc1nc2ccc(F)nc2[nH]1 [Compound 2104, 4-[(2,4-dichlorophenyl)methyl]-1-({5-fluoro-1H-imidazo[4,5-b]pyridin-2-yl}methyl)-2-(methylsulfanyl)-1H-imidazole]
19 | < 40 nM | < 40 nM | 1000 nM | – | 40.2 nM | CCn1c(Cc2ccc(Cl)cc2Cl)cn(Cc2nc3ccccc3[nH]2)c1=O [Compound 2068, 1-[(1H-1,3-benzodiazol-2-yl)methyl]-4-[(2,4-dichlorophenyl)methyl]-3-ethyl-2,3-dihydro-1H-imidazol-2-one]
20 | 117 nM | 113 nM | – | – | > 2000 nM | COc1ccc(-c2nn(C)c3c2CN(Cc2nc4nc(Cl)ccc4[nH]2)CC3)c(Cl)c1 [Compound 2187, 5-((5-chloro-1H-imidazo[4,5-b]pyridin-2-yl)methyl)-3-(2-chloro-4-methoxyphenyl)-1-methyl-4,5,6,7-tetrahydro-1H-pyrazolo[4,3-c]pyridine]
21 | < 40 nM | < 40 nM | 329 nM | – | 53.5 nM | CSc1nc(Cc2ccc(Cl)cc2Cl)cn1Cc1nc2nc(Cl)ccc2[nH]1 [Compound 2109, 1-({5-chloro-1H-imidazo[4,5-b]pyridin-2-yl}methyl)-4-[(2,4-dichlorophenyl)methyl]-2-(methylsulfanyl)-1H-imidazole]
22 | < 40 nM | 91.7 nM | – | – | 174 nM | Clc1ccc(Cn2cnc(Cc3nc4nc(Cl)ccc4[nH]3)c2)c(Cl)c1 [Compound 2190, 4-({5-chloro-1H-imidazo[4,5-b]pyridin-2-yl}methyl)-1-[(2,4-dichlorophenyl)methyl]-1H-imidazole]
23 | < 40 nM | 89.4 nM | – | – | 489 nM | CCn1c(Cc2ccc(Cl)cc2Cl)cn(C(C)c2nc3ccc(Cl)nc3[nH]2)c1=O (stereo not drawn) [Compound 2142, 1-(1-{5-chloro-1H-imidazo[4,5-b]pyridin-2-yl}ethyl)-4-[(2,4-dichlorophenyl)-methyl]-3-ethyl-2,3-dihydro-1H-imidazol-2-one]
